Experimental data as given in patent US20190194148A1, “TETRAZOLE-CONTAINING 1,2-CYCLOPROPANE-CARBOXAMIDES” (Bayer Pharma Aktiengesellschaft, priority 2017, published 2019).

Target: T1, human B1 receptor (Homo sapiens, UniProt P46663)
T1 construct: host or cells: CHO-K1
T1 sequence (P46663 1-353): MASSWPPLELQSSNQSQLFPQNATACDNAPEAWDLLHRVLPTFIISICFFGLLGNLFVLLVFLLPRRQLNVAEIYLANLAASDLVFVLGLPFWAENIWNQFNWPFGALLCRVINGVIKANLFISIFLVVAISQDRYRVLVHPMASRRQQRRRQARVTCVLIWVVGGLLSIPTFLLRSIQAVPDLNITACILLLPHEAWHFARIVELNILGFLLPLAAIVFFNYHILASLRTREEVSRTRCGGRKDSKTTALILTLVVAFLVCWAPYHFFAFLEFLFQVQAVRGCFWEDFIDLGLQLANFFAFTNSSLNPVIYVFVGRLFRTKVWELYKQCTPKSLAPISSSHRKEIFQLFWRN
Test: Calcium flux assay (FLIPR) with recombinant CHO-K1 cells expressing human B1 receptor
Format: cell-based
Details: absence of 0.1% BSA in assay buffer, read-out: hB1 free IC50
Experimental: The potency to inhibit the Bradykinin B1 receptors was determined for the example compounds of this invention in a cell-based fluorescent calcium-mobilisation assay. The assay measures the ability of example compounds to inhibit Bradykinin B1 receptor agonist-induced increase of intracellular free Ca^2+ in the cell line expressing B1 receptor. Specifically, calcium indicator-loaded cells are pre-incubated in the absence or presence of different concentrations of example compounds followed by the stimulation with a selective B1 receptor agonist peptide. The change of the intracellular Ca^2+ concentration is monitored with a fluorescent plate reader FLIPR (Molecular Devices).
Calcium Flux Assays (FLIPR) with Cells Expressing Bradykinin B1 Receptor Calcium Flux Assay (FLIPR) with Recombinant Cells for Bradykinin B1 Receptor Antagonist, Either in the Presence (hB1 IC50) or Absence (hB1 free IC50) of 0.1% Bovine Serum Albumin (BSA) in Assay Buffer
CHO-K1 cell line expressing human B1 receptor was purchased from Euroscreen (Gosselies, Belgium, with reference name hB1-D1). The cells were grown in Nutrient Mixture Ham's F12 (Sigma) containing 10% Foetal bovine serum (Sigma) and 400 μg/mL G418 (Sigma), 5 μg/mL puromycin (Sigma).
For the calcium flux assay, 80% confluent cells were detached from the culture vessels with Versene (Gibco), and seeded into 384-well plates (Cell binding Surface; Corning, N.Y.; #3683) at a density of 15,000 cells per well. Cells were seeded in a volume of 50 μL in medium without antibiotics and incubated overnight in a humidified atmosphere with 5% CO2 at 37° C. […] The calcium indicator loaded cells were incubated at 37° C. for 2 hrs. Extracellular dye was then removed and each well was filled with 45 μL of assay buffer. Cell plates were kept in dark until used. Example compounds were assayed at 8 concentrations in triplicate. Serial 10-fold dilutions in 100% DMSO were made at a 100-times higher concentration than the final concentration, and then diluted 1:10 in assay buffer. 5 μL of each diluted compound was added to the well of cell plates (yielding final concentration with 1% DMSO), and incubated for 30 min at 28° C. before the addition of B1 receptor agonist on the FLIPR instrument.
Agonist plates contained the agonist Lys-(Des-Arg)-Bradykinin (Bachem, Brackley) at 3.5×EC90 in assay buffer with 1% DMSO. The addition of agonist 20 μl per well to the assay plate was carried out on the FLIPR instrument while continuously monitoring Ca^2+-dependent fluorescence at 538 nm. A peptide antagonist Lys-(Des-Arg-Leu)-Bradykinin (Bachem, Brackley) at 20 μM was used to determine the full inhibition as control.
Peak fluorescence was used to determine the response to agonist obtained at each concentration of example compound by the following equation:
% Response=100*(RFU(example compound)−RFU(control)/(RFU(DMSO)−RFU(control)
Control=full inhibition by the peptide antagonist Lys-(Des-Arg-Leu)-Bradykinin at 20 μM
The response values were plotted against the logarithm of the compound concentrations. The compounds were tested in triplicates per plate and mean values were plotted in Excel XLfit to determine IC50 values, percentage of maximal inhibition and the Hill slopes.

| IC50 [nM] | Compound |
| --- | --- |
| 2210 | O=C(Nc1ccc(-n2cc(C(F)(F)F)cn2)c(-c2nnn[nH]2)c1)C1CC1c1ccccc1 (racemic) [Example 43, 2-Phenyl-N-{3-(1H-tetrazol-5-yl)-4-[4-(trifluoromethyl)-1H-pyrazol-1-yl]phenyl}cyclopro-panecarboxamide] |
| 26 | CC(C)(C)c1cnn(-c2ccc(NC(=O)C3CC3c3ccc(Cl)cc3)cc2-c2nnn[nH]2)c1 (racemic) [Example 44, N-[4-(4-tert-butyl-1H-pyrazol-1-yl)-3-(1H-tetrazol-5-yl)phenyl]-2-(4-chlorophenyl)cyclopro-panecarboxamide] |
| 463 | CC(C)(C)c1ccn(-c2ccc(NC(=O)C3CC3c3ccc(Cl)cc3)cc2-c2nnn[nH]2)n1 (racemic) [Example 45, N-[4-(3-tert-butyl-1H-pyrazol-1-yl)-3-(1H-tetrazol-5-yl)phenyl]-2-(4-chlorophenyl)cyclopro-panecarboxamide] |

Same assay, conditions: presence of 0.1% BSA in assay buffer, read-out: hB1 IC50

| IC50 [nM] | Compound |
| --- | --- |
| 22 | COCc1ccc(-c2ccc(NC(=O)C3CC3c3ccc(Cl)cc3)cc2-c2nnn[nH]2)cc1C (racemic) [Example 32, 2-(4-chlorophenyl)-N-[4′-(methoxymethyl)-3′-methyl-2-(1H-tetrazol-5-yl)biphenyl-4-yl]cyclopro-panecarboxamide] |
| 28 | COCc1ccc(-c2ccc(NC(=O)C3CC3C3CCCCC3)cc2-c2nnn[nH]2)cc1C (racemic) [Example 33, 2-cyclohexyl-N-[4′-(methoxymethyl)-3′-methyl-2-(1H-tetrazol-5-yl)biphenyl-4-yl]cyclo-propanecarboxamide] |
| 232 | COc1ccc(-c2ccc(NC(=O)C3CC3c3ccc(Cl)cc3)cc2-c2nnn[nH]2)cc1C (racemic) [Example 34, 2-(4-chlorophenyl)-N-[4′-methoxy-3′-methyl-2-(1H-tetrazol-5-yl)biphenyl-4-yl]cyclopropanecarbox-amide] |
| 662 | COc1ccc(-c2ccc(NC(=O)C3CC3c3ccc(C)cc3)cc2-c2nnn[nH]2)cc1 (racemic) [Example 36, N-[4′-methoxy-2-(1H-tetrazol-5-yl)biphenyl-4-yl]-2-(4-methylphenyl)cyclopro-panecarboxamide] |
| 469 | COc1ccc(-c2ccc(NC(=O)C3CC3C3CCCCC3)cc2-c2nnn[nH]2)cc1 (racemic) [Example 37, 2-cyclohexyl-N-[4′-methoxy-2-(1H-tetrazol-5-yl)biphenyl-4-yl]cyclopropanecarbox-amide] |
| 1470 | COCc1ccc(-c2ccc(NC(=O)C3CC3c3ccc(Cl)cc3)cc2-c2nnn[nH]2)cc1 (racemic) [Example 38, 2-(4-chlorophenyl)-N-[4′-(methoxymethyl)-2-(1H-tetrazol-5-yl)biphenyl-4-yl]cyclopropanecarbox-amide] |
| 1230 | COc1ccc(-c2ccc(NC(=O)C3CC3c3ccc(Cl)cc3)cc2-c2nnn[nH]2)cc1Cl (racemic) [Example 39, N-[3′-chloro-4′-methoxy-2-(1H-tetrazol-5-yl)biphenyl-4-yl]-2-(4-chlorophenyl)cyclopro-panecarboxamide] |
| 1030 | COc1ccc(-c2ccc(NC(=O)C3CC3C3CCCCC3)cc2-c2nnn[nH]2)cc1Cl (racemic) [Example 40, N-[3′-chloro-4′-methoxy-2-(1H-tetrazol-5-yl)biphenyl-4-yl]-2-cyclohexylcyclopropane-carboxamide] |
| 33 | O=C(Nc1ccc(-c2ccc(OC(F)(F)F)cc2)c(-c2nnn[nH]2)c1)C1CC1c1ccc(Cl)cc1 (racemic) [Example 41, 2-(4-chlorophenyl)-N-[2-(1H-tetrazol-5-yl)-4′-(trifluoro-methoxy)biphenyl-4-yl]cyclopropanecarbox-amide] |
| 31 | O=C(Nc1ccc(-c2ccc(OC(F)(F)F)cc2)c(-c2nnn[nH]2)c1)C1CC1C1CCCCC1 (racemic) [Example 42, 2-cyclohexyl-N-[2-(1H-tetrazol-5-yl)-4′-(trifluoro-methoxy)biphenyl-4-yl]cyclopropanecarbox-amide] |
